Assays:
Assay in all cases: relative viability (nuclei count vs DMSO), 5 days (fraction); higher = more cells survive
KN-93 + Lapatinib = compound: CN(C/C=C/C1=CC=C(C=C1)Cl)CC2=CC=CC=C2N(CCO)S(=O)(=O)C3=CC=C(C=C3)OC [KN-93] + CS(=O)(=O)CCNCc1ccc(-c2ccc3ncnc(Nc4ccc(OCc5cccc(F)c5)c(Cl)c4)c3c2)o1 [Lapatinib] (partner 2 µM)
Method in brief: (§1)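 Medians of duplicate plates are given as relative viability. That measure is the nuclei count in treated wells divided by the count in vehicle wells. Counts were taken on 4× images of lung cancer cell lines in 1536-well plates, 5 days after pin-tool dosing the day after seeding with one drug alone or a fixed anchor-drug dose plus five library-drug doses (not always all listed) in √10 steps.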

KN-93 + Dasatinib = compound: CN(C/C=C/C1=CC=C(C=C1)Cl)CC2=CC=CC=C2N(CCO)S(=O)(=O)C3=CC=C(C=C3)OC [KN-93] + Cc1nc(Nc2ncc(C(=O)Nc3c(C)cccc3Cl)s2)cc(N2CCN(CCO)CC2)n1 [Dasatinib] (partner 0.075 µM)
Method in brief: as §1

KN-93 + Phenformin = compound: CN(C/C=C/C1=CC=C(C=C1)Cl)CC2=CC=CC=C2N(CCO)S(=O)(=O)C3=CC=C(C=C3)OC [KN-93] + N=C(N)NC(=N)NCCc1ccccc1 [Phenformin] (partner 250 µM)
Method in brief: as §1

KN-93 + Pictilisib = compound: CN(C/C=C/C1=CC=C(C=C1)Cl)CC2=CC=CC=C2N(CCO)S(=O)(=O)C3=CC=C(C=C3)OC [KN-93] + CS(=O)(=O)N1CCN(Cc2cc3nc(-c4cccc5[nH]ncc45)nc(N4CCOCC4)c3s2)CC1 [Pictilisib] (partner 1 µM)
Method in brief: as §1

KN-93 + Alpelisib = compound: CN(C/C=C/C1=CC=C(C=C1)Cl)CC2=CC=CC=C2N(CCO)S(=O)(=O)C3=CC=C(C=C3)OC [KN-93] + Cc1nc(NC(=O)N2CCC[C@H]2C(N)=O)sc1-c1ccnc(C(C)(C)C(F)(F)F)c1 [Alpelisib] (partner 2 µM)
Method in brief: as §1

Cell Line	relative viability (KN-93 + Lapatinib; first compound 0.08 µM)	relative viability (KN-93 + Lapatinib; first compound 0.253 µM)	relative viability (KN-93 + Lapatinib; first compound 2.53 µM)	relative viability (KN-93 + Lapatinib; first compound 8 µM)	relative viability (KN-93 + Dasatinib; first compound 0.08 µM)	relative viability (KN-93 + Dasatinib; first compound 0.253 µM)	relative viability (KN-93 + Dasatinib; first compound 2.53 µM)	relative viability (KN-93 + Dasatinib; first compound 8 µM)	relative viability (KN-93 + Phenformin; first compound 0.08 µM)	relative viability (KN-93 + Phenformin; first compound 0.253 µM)	relative viability (KN-93 + Phenformin; first compound 2.53 µM)	relative viability (KN-93 + Phenformin; first compound 8 µM)	relative viability (KN-93 + Pictilisib; first compound 0.08 µM)	relative viability (KN-93 + Pictilisib; first compound 0.253 µM)	relative viability (KN-93 + Pictilisib; first compound 2.53 µM)	relative viability (KN-93 + Pictilisib; first compound 8 µM)	relative viability (KN-93 + Alpelisib; first compound 0.08 µM)	relative viability (KN-93 + Alpelisib; first compound 0.253 µM)	relative viability (KN-93 + Alpelisib; first compound 2.53 µM)	relative viability (KN-93 + Alpelisib; first compound 8 µM)
NCI-H2126	0.806	0.659	0.804	0.702	0.565	0.468	0.578	0.364	0.524	0.483	0.502	0.481	0.482	0.443	0.499	0.468	0.81	0.725	0.769	0.727
NCI-H2170	0.271	0.257	0.274	0.249	0.501	0.55	0.718	0.266	0.434	0.419	0.392	0.402	0.303	0.266	0.319	0.255	0.782	0.876	0.928	0.65
NCI-H2228	1.15	1.17	1.04	0.728	0.597	0.541	0.631	0.326	0.229	0.347	0.412	0.325	0.251	0.324	0.384	0.329	0.704	0.553	0.722	0.236
NCI-H2347	0.932	0.921	1.17	0.595	0.322	0.273	0.288	0.245	0.517	0.376	0.55	0.362	0.572	0.616	0.696	0.543	1	1.09	1.07	0.764
NCI-H2405	1.17	1.09	1.06	0.659	0.222	0.238	0.491	0.204	0.379	0.479	0.718	0.354	0.407	0.319	0.446	0.305	0.831	0.732	0.766	0.526
NCI-H3122	1.09	1.01	1.12	0.978	0.716	0.824	1.12	0.661	0.384	0.381	0.901	0.326	0.622	0.708	0.639	0.627	0.829	0.659	0.766	0.585

Source: the supplement of paper PMC10307832
